In patent publication US20110142866A1, “PEPTIDE ANALOGUES AND CONJUGATES THEREOF” (Eldrug S.A., priority 2007, published 2011):
Where “and” joins values, the source holds several entries; their conditions need not be identical. Identical values can stand only once. Entries after “also recorded” stand apart in the source; their conditions may differ.

Columns and labels:
Assay type in all cases: in vivo, SJL/J mice
[1] = tested on: IFN-γ secretion by T cells; test: IFN-γ ELISpot of spleen cells from immunized mice; set-up: key to IFN-γ: −: negative; +/−: very weak; +: weak; ++: moderate; +++: strong
Protocol: (§1) Female 6-8 week old SJL/J mice used in all experiments, were purchased from Walter and Eliza Hall Institute (VIC Australia) and housed at the Biological Research Laboratory at Burnet Institute at Austin, Heidelberg, Australia. SJL/J mice were immunized twice on days 0, 14 intradermally (base of tail) with 50 μg MBP83-99 peptide analogue-KLH-reduced mannan.
(§2) ELISpot analyses specific T cell responses to antigens by detecting the secretion of specific cytokines. Spleen cells from immunized SJL/J mice were isolated 14 days after immunization and assessed by ELISpot for IFN-γ, IL-4 or IL-10 secretion by T cells. IFN-γ ELISpot assay was performed on MultiScreen-IP Filter Plate (MAIP S4510) with hydrophobic PVDF filters (Millipore, UK) while IL-4 and IL-10 ELISpot was performed on MultiScreen-HA Filter Plate (MAHA S4510) with mixed cellulose esters filters (Millipore, UK). MAIP S4510 plates were pre-wet with 50 μl of 70% ethanol, washed 5 times with 200 μl sterile PBS and coated with 70 μl of 5 μg/ml anti-IFN-γ capture antibody, AN18 (Mabtech, Australia) in PBS and left to incubate at 4° C. O/N. While 70 μl of 5 μg/ml anti-IL-4 and anti-IL-10 capture antibody (Mabtech, Australia) was added directly to MAHA S4510 plates and incubated at 4° C. O/N without 70% ethanol treatment. Following 5 washes with PBS, plates were blocked by adding 200 μl of culture media (supplemented with 2.5% FCS) and incubated for 2 hours at 37° C. The blocking media was discarded and 10 μg/ml recall peptides (MBP83-99 peptide analogues not conjugated to KLH-reduced mannan) were added into each defined well. Con A (1.0 μg/ml; IL-4 and IFN-γ) or LPS (1.0 μg/ml; IL-10) were used as an internal positive controls and no peptide was used as negative control. Triplicate wells were set up for each condition. 5×10^5 spleen cells in 100 μl culture media were seeded into each well and incubated for 18 hours for IFN-γ, 24 hours for IL-4 and 48 hours for IL-10 at 37° C. Plates were washed 5 times PBS/0.05% Tween 20 and 5 times PBS and incubated for 2 hours at RT with anti-murine IFN-γ, IL-4 or IL-10 monoclonal antibody-biotin. Plates were washed and streptavidin-ALP was added at 1.0 μg/ml and incubated for 2.0 hours at RT. Spots of activity were detected using a colorimetric AP kit (Biorad, Hercules, Calif. USA) and counted using an AID ELISpot plate reader (Autoimmun Diagnostika GmbH, Germany). Data are presented as mean spot forming units (sfu) per 0.5×10^6 cells +/−standard error of the mean (SEM).
(§3) MBP87-99, [R^91, A^96]MBP87-99 or [A^91, A^96]MBP87-99 peptides were dissolved in PBS and emulsified in an equal volume of complete Freund's adjuvant (CFA) which contained 1.0 mg/ml of heat killed Mycobacterium tuberculosis H37RA (Sigma, Victoria, Australia). SJL/J mice were given one subcutaneous injection containing 50 μg peptide into the base of tail.
(§4) SJL/J mice were immunized twice on days 0 and 14 intradermally (base of tail) with 50 μg MBP87-99-KLH-reduced mannan, [R^91, A^96]MBP87-99-KLH-reduced mannan or [A^91, A^96]MBP87-99-KLH-reduced mannan conjugates.
(§5) ELISpot detects specific T cell responses to antigens by measuring the secretion of specific cytokines from individual cells. Spleen cells from immunized SJL/J mice were isolated 28 days after CFA immunization or 14 days after the last immunization with reduced mannan-peptides and assessed by ELISpot for IFN-γ and IL-4 secretion by T cells. IFN-γ ELISpot assay was performed on MultiScreen-IP Filter Plate (MAIP S4510) with hydrophobic PVDF filters (Millipore, UK), while IL-4 ELISpot assays were performed on MultiScreen-HA Filter Plate (MAHA S4510) with mixed cellulose esters filters (Millipore, UK). MAIP S4510 plates were pre-weted with 50 μl of 70% ethanol, washed 5 times with 200 μl of sterile phosphate-buffered saline (PBS) and coated with 70 μl of 5 μg/ml anti-IFN-γ capture antibody, AN18 (Mabtech, Australia) in PBS and incubated O/N at 4° C. […]

[2] = tested on: IL-4 secretion by T cells; test: IL-4 ELISpot of spleen cells from immunized mice; set-up: key to IL-4: −: negative; +/−: very weak; +: weak; ++: moderate; +++: strong; details: for IL-4 responses: peptide conjugated to reduced mannan, two injections
Protocol: as §1, §2, §3, §4, §5

[3] = tested on: respective peptides conjugated to BSA or KLH; test: ELISA total IgG antibody responses to the respective peptide; set-up: key to Antibody: −: negative; +/−: very weak; +: weak; ++: moderate; +++: strong
Protocol: Blood was collected and sera isolated from mice prior to and 4 weeks after immunization with CFA or 14 days after the last immunization with reduced mannan conjugates. MBP87-99 or [A^91, A^96]MBP87-99 peptides conjugated to BSA or KLH were coated onto polyvinyl chloride (PVC) microtiter plates at 10 μg/ml in 0.2 M NaHCO3 buffer, pH 9.6, 0/N at 4° C. Non-specific binding was blocked with 2% BSA for 1.0 h at RT. After washing (0.05 Tween 20/PBS), serial dilutions of sera were added and incubated for a further 2 h at RT. The plates were washed and bound antibody was detected using HRP-conjugated sheep anti-mouse antibody (1/1000 dilution in PBS) (Amersham, UK) and developed using 2,2′-azino-di(3-ethylbenzthiazoline)6-sulfonic acid (ABTS) (Sigma, UK). Absorbance at 405 nm was recorded using a Fluostar Optima microplate reader (BMG labtech, Offenburg, Germany).
ELISpot assays for IFN-γ and IL-4 secretion by T cells and ELISA assays for binding of sera to native MBP protein or peptide were carried out as previously described^3, 4, 20, 21. Mean values were compared using the Student's two-tailed t-test. P value threshold of p<0.01 indicates a statistically significant difference.

[4] = Table 2, peptide analogues conjugated to reduced mannan-KLH
[5] = Table 3, peptide analogues emulsified in complete Freund's adjuvant
[6] = 50 μg peptide conjugated to reduced mannan, two intradermal injections, spleen cells 14 days post-immunization
[7] = peptide conjugated to reduced mannan
[8] = 50 μg peptide emulsified in CFA, one injection, spleen cells 28 days

Row | Compound | IFN-γ [1, 4] | IFN-γ [1, 5] | IL-4 secreting T cells (in words) [2, 6] | IL-4 [2, 4] | IL-4 [2, 5] | Antibody [3, 4] | Antibody [3, 5] | subclass of the antibodies induced [3, 7] | IFN-γ secreting T cells (in words) [1, 6] | IFN-γ secreting T cells (in words) [1, 8] | IL-4 secreting T cells (in words) [2, 8] | IgG antibody responses (in words) ([3]; peptide emulsified in CFA) | IL-4 responses [2] | total IgG antibody titer [3, 7] | IgG antibody responses (in words) [3, 7]
1 | E N P V V H F F E N I V T P R T P (ENPVVHFFENIVTPRTP) [[E^91]MBP83-99] | − | − | high levels | +++ | − | +++ | ++ | IgG1 |  |  |  |  |  |  | 
2 | CC[C@H](C)[C@@H]1NC(=O)[C@H](CC(N)=O)NC(=O)[C@H](CCCCN)NC(=O)[C@H](Cc2ccccc2)NC(=O)[C@H](Cc2ccccc2)NC(=O)[C@H](Cc2c[nH]cn2)NC(=O)[C@H](C(C)C)NC(=O)[C@H](C(C)C)NC(=O)[C@@H]2CCCN2C(=O)[C@H](CC(N)=O)NC(=O)[C@H](CCC(=O)O)NC(=O)[C@@H]2CCCN2C(=O)[C@H]([C@@H](C)O)NC(=O)[C@H](CCCNC(=N)N)NC(=O)[C@@H]2CCCN2C(=O)[C@H]([C@@H](C)O)NC(=O)[C@H](C(C)C)NC1=O [cyclo(83-99)MBP83-99, cyclo(83-99)E N P V V H F F K N I V T P R T P] |  | + | did not stimulate; also recorded: weak or no |  | − |  |  |  | weak and generated IFN-γ secreting T cells | induced IFN-γ responses | induced IL-4 | antibodies were generated |  |  | 
3 | E N P V V H F F Y N I V T P R T P (ENPVVHFFYNIVTPRTP) [[Y^91]MBP83-99] | − | − | high levels | +++ | − | +++ | − | IgG1 |  |  |  |  |  |  | 
4 | E N P V V H F F R N I V T A R T P (ENPVVHFFRNIVTARTP) [[R^91, A^96]MBP83-99] | − | ++ | high levels | +++ | ++ | +++ | ++ | IgG1 | no IFN-γ |  |  |  |  |  | 
5 | cyclo(83-99)E N P V V H F F A N I V T P R T P (ENPVVHFFANIVTPRTP; cyclised or stapled) [cyclo(83-99)[A^91]MBP83-99] | − | − | negative | − | − | +/− | + |  | negative | lower | did generate IL-4 | enhanced | up to 70 SFU/0.5 million cells | 1/800 and 1/1600 | 
6 | E N P V V H F F K N I V T P R T P (ENPVVHFFKNIVTPRTP) [MBP83-99, reference compound] | ++ | + | did not stimulate; also recorded: weak or no; also recorded: low levels | − | − | +++ | − |  | weak and generated IFN-γ secreting T cells and high levels | induced IFN-γ responses | did not induce IL-4 | did not generate IgG antibodies |  |  | 
7 | E N P V V H F F F N I V T P R T P (ENPVVHFFFNIVTPRTP) [[F^91]MBP83-99] | ++ | ++ | high levels; also recorded: induced | +++ | − | +/− | ++ |  | weak and induced |  |  |  |  | 1/800 | weak
8 | E N P V V H F F A N I V T P R T P (ENPVVHFFANIVTPRTP) [[A^91]MBP83-99] | − | − | high levels | +++ | − | + | ++ | IgG1 | negative | lower | not able to generate IL-4 | able to induce IgG antibody responses | up to 600 SFU/0.5 million cells | 1/640 | 
